Assay results taken from US9855236B2, “Pharmaceutical compositions comprising DGLA and/or 15-HETrE and methods of use thereof” (Dignity Sciences Limited, priority 2011, dated 2018).

What was measured:
[1] = test system: UV-induced edema and erythema; assay: Sinclair miniature swine phototoxicity model: sites exposed to UV, then treated topically for 7 days (treatment); format: in vivo; details: for average Draize score as compared to test sites treated with the control vehicle: test sites first exposed to UV radiation, then treated topically twice daily for 7 days, any of the tested dosages, vehicle ethanol, FIGS. 1-6; for treating or reversing UV induced erythema: topical application after UV exposure
Procedure: Compositions comprising DGLA and/or 15-HETrE were tested for their ability to treat and/or prevent edema and erythema (e.g., UV induced erythema). In an exemplary method, a Sinclair miniature swine model of phototoxicity testing was employed to examine the effects of such compositions on UV-induced edema and erythema. Miniature swine were chosen for these studies as they have a skin structure that closely resembles that of humans. The miniature swine used in these studies were fed standard Sinclair S-9 ration or equivalent, once a day at a maintenance amount and had ad libitum access to deep well water. Throughout the study, the swine were housed individually in cages (˜3×5 ft) constructed of stainless steel with self-spanned polyvinyl chloride (PVC)-coated expanded metal flooring. The animal housing rooms were set to maintain a room temperature of 16 to 27° C. (61 to 81° F.), with fluorescent lights providing an approximate 12-hr light/12-hr dark photoperiod. The animals were acclimated for approximately 5 days prior to the start of dosing. During acclimation, animals were subject to a physical examination by a veterinarian and any animal with questionable health was excluded from these studies. For these studies, two groups each consisting of three animals (#1-#3) were used. For each animal, ten sites (e.g., dose sites) for were established on the torso and the hair at the site was clipped with an electric clipper. These sites were then shaved and demarcated by tattooing at least four days prior to the start of initial dosing on study day 1. The dose sites may be shaved with a razor the day prior to initial dose administration and prior to the second and third application when applicable. The sites (approximately 4 cm^2 in size) were evenly split on the left and right side with 5 sites demarcated on each side. Each animal was topically administered a composition comprising a control vehicle (ethanol), DGLA or HETrE to the demarcated test sites on the animal before and/or after exposure of the test sites to UV radiation. Specifically, a 0.1 mL dose of a composition comprising 1 mg/mL, 10 mg/mL, or 100 mg/mL of DGLA and a 0.1 mL dose of a composition comprising 0.1 mg/mL, 1.0 mg/mL, or 10 mg/mL 15-HETrE was applied to separate 4 cm^2 areas of the skin (e.g., test sites) on each animal to achieve a dose per area of 0.1 mg/4 cm^2, 1.0 mg/4 cm^2, or 10.0 mg/4 cm^2 DGLA or 0.1 mg/4 cm^2, 1.0 mg/4 cm^2, or 10.0 mg/4 cm^2 15-HETrE, respectively. Such compositions were applied via a pipette twice daily with approximately seven hours between administrations over 7 days. Table 1 below outlines the dosing regimen for the 10 sites on each animal and indicates the day that the animal was administered a dose of UV radiation. […]

[2] = test system: UV-induced edema and erythema; assay: Sinclair miniature swine phototoxicity model: sites treated topically for 7 days, then exposed to UV (prevention); format: in vivo; details: for prevention of UV-induced erythema: topical before UV exposure; for average Draize score as compared to test sites treated with the control vehicle: test sites first treated topically twice daily for 7 days, then exposed to UV radiation, vehicle ethanol, FIGS. 7-12
Procedure: Compositions comprising DGLA and/or 15-HETrE were tested for their ability to treat and/or prevent edema and erythema (e.g., UV induced erythema). In an exemplary method, a Sinclair miniature swine model of phototoxicity testing was employed to examine the effects of such compositions on UV-induced edema and erythema. Miniature swine were chosen for these studies as they have a skin structure that closely resembles that of humans. The miniature swine used in these studies were fed standard Sinclair S-9 ration or equivalent, once a day at a maintenance amount and had ad libitum access to deep well water. Throughout the study, the swine were housed individually in cages (˜3×5 ft) constructed of stainless steel with self-spanned polyvinyl chloride (PVC)-coated expanded metal flooring. The animal housing rooms were set to maintain a room temperature of 16 to 27° C. (61 to 81° F.), with fluorescent lights providing an approximate 12-hr light/12-hr dark photoperiod. The animals were acclimated for approximately 5 days prior to the start of dosing. During acclimation, animals were subject to a physical examination by a veterinarian and any animal with questionable health was excluded from these studies. For these studies, two groups each consisting of three animals (#1-#3) were used. For each animal, ten sites (e.g., dose sites) for were established on the torso and the hair at the site was clipped with an electric clipper. These sites were then shaved and demarcated by tattooing at least four days prior to the start of initial dosing on study day 1. The dose sites may be shaved with a razor the day prior to initial dose administration and prior to the second and third application when applicable. The sites (approximately 4 cm^2 in size) were evenly split on the left and right side with 5 sites demarcated on each side. Each animal was topically administered a composition comprising a control vehicle (ethanol), DGLA or HETrE to the demarcated test sites on the animal before and/or after exposure of the test sites to UV radiation. Specifically, […] comprising 0.1 mg/mL, 1.0 mg/mL, or 10 mg/mL 15-HETrE was applied to separate 4 cm^2 areas of the skin (e.g., test sites) on each animal to achieve a dose per area of 0.1 mg/4 cm^2, 1.0 mg/4 cm^2, or 10.0 mg/4 cm^2 DGLA or 0.1 mg/4 cm^2, 1.0 mg/4 cm^2, or 10.0 mg/4 cm^2 15-HETrE, respectively. Such compositions were applied via a pipette twice daily with approximately seven hours between administrations over 7 days. Table 1 below outlines the dosing regimen for the 10 sites on each animal and indicates the day that the animal was administered a dose of UV radiation. For example, for test sites 5-7, the sites were first exposed to UV radiation on day 4 and then contacted topically with DGLA or HETrE on days 4-10. Additionally, for example, for test sites 8-10, the sites were topically contacted with DGLA or HETrE on days 1-7 and then exposed to UV radiation on day 8. [table] Animals receiving UV light were anesthetized via isoflurane gas and 100% oxygen. To exposure the animals to UV, a bank of fluorescent lamps utilizing 10 UVA and 1 UVB bulb was then suspended over the animal. The correct dose level of UV light applied to the designated dose site was verified using a Solar Light® light meter. Animals were exposed to MED/hi of 4 for a time period of 21 minutes yielding a MEDi of 1.4. […]

SMILES	average Draize score as compared to test sites treated with the control vehicle [1]	treating or reversing UV induced erythema [1]	skin irritation by the high dose ([2]; 10 mg/mL dose of DGLA, topical, prevention of erythema could not be determined at this dose)	prevention of UV-induced erythema ([2]; dose of 0.1 or 1.0 mg/mL DGLA)	average Draize score as compared to test sites treated with the control vehicle [2]	prevention of UV-induced erythema ([2]; dose of 0.01, 0.1, or 1.0 mg/mL HETrE)
CCCCC/C=C\C/C=C\C/C=C\CCCCCCC(=O)O [DGLA, cis-8,11,14-eicosatrienoic acid]	did not exhibit an appreciable difference	not capable of treating or reversing UV induced erythema	irritating to the skin	able to prevent UV-induced erythema	significant reduction	
CCCCCC(O)/C=C/C=C\C/C=C\CCCCCCC(=O)O (stereo not drawn) [HETrE, 15-Hydroxy-eicosa-8(Z),11(Z),13(E)-trienoic acid]	did not exhibit an appreciable difference	not capable of treating or reversing UV induced erythema			significant reduction	able to prevent UV-induced erythema
